Molecular target: T1, glucocorticoid receptor (Rattus norvegicus, UniProt P06536)
T1 construct: The thymus was removed and put into ice-cold saline; from tissue; host or cells: thymus of male Sprague-Dawley rats, 20,000×g supernatant of homogenate
T1 sequence (P06536 1-795): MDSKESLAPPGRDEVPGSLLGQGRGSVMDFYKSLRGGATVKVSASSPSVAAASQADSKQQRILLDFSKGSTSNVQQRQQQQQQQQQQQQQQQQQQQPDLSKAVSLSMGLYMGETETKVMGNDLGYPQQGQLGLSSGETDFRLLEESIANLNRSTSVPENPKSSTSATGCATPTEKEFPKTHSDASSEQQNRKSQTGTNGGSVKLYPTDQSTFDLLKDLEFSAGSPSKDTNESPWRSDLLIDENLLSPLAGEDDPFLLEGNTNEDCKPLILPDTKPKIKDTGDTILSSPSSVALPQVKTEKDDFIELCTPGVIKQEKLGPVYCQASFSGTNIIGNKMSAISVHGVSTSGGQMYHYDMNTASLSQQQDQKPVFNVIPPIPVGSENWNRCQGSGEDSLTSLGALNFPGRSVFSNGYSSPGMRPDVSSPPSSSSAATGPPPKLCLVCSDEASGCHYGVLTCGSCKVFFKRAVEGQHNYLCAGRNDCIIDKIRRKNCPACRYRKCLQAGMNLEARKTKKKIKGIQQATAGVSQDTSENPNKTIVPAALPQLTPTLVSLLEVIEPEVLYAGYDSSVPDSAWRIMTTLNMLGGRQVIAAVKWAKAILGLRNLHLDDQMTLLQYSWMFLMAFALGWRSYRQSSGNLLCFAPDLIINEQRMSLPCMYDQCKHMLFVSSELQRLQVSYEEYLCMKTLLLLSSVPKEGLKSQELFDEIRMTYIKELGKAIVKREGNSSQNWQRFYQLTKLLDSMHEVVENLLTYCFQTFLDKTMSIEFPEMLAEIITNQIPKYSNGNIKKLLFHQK
Test: Relative binding affinity to the glucocorticoid receptor: competition with 3H-labelled dexamethasone in rat thymus 20,000×g supernatant
Settings: curves compared at the 50% specific binding level of [3H]dexamethasone, referenced to budesonide, assigned RBA = 1, about 24 h at 0° C.
Protocol: All steroids according to the present invention are physiologically active compounds. The affinity of the novel androstane-17β-carboxylic acid esters to the glucocorticoid receptor has been used as a model for determination of the anti-inflammatory potency.
Male Sprague-Dawley rats, one to two months of age, were used throughout the investigation. The thymus was removed and put into ice-cold saline. The tissue was homogenized in a Potter Elvehjem homogenizer in 10 ml of a buffer containing 20 mM Tris, pH 7.4, 10% (w/v) glycerol, 1 mM EDTA, 20 mM NaMoO4, 10 mM mercaptoethanol. The homogenate was centrifuged for 15 min at 20,000×g. Portions of the 20,000×g supernatant (230 μl) were incubated for about 24 h at 0° C. with 100 μl phenylmethylsulphonylfluoride (an esterase inhibitor, final conc. 0.5 mM). 20 μl unlabelled competitor and 50 μl ^3 H-labelled dexamethasone (final conc. […]). Bound and free steroid were separated by incubating the mixture with 60 μl 2.5% (w/v) charcoal and 0.25% (w/v) dextran T70 suspension in 20 mM Tris, pH 7.4, 1 mM EDTA, and 20 mM NaMoO4 for 10 min at 0° C. Following a centrifugation at 500×g for 10 min, 230 μl or the supernatant was counted in 10 ml Insta-Gel in a Packard scintillation spectrophotometer. The supernatants were incubated with (a) [^3 H]dexamethasone alone, (b) [^3 H]dexamethasone plus 1000 fold excess of unlabelled dexamethasone and (c) [^3 H]dexamethasone plus 0.03-300 fold "excess" of competitor. The nonspecific binding was determined when 1000 fold excess of unlabelled dexamethasone was added to [^3 H]-labelled dexamethasone.
The radioactivity bound to the receptor in the presence of competitor divided by the radioactivity bound to the receptor in the absence of competitor multiplied by 100 gives the percentage specific binding of labelled dexamethasone. For each concentration of a competitor the percentage specifically bound radioactivity is plotted against the log of concentration of competitor. The curves are compared at the 50% specific binding level and referenced to budesonide, which is assigned a relative binding affinity (RBA) of 1.

Row | Structure (SMILES) | relative binding affinities (RBA) to the glucocorticoid receptor
1 | CCC[C@@H]1O[C@@H]2C[C@H]3[C@@H]4C[C@H](F)C5=CC(=O)C=C[C@]5(C)[C@@]4(F)[C@@H](O)C[C@]3(C)[C@]2(C(=O)OC(C)OC(=O)OCC)O1 (single isomer, unassigned) [Example 84] | 1.03
2 | CCOC(=O)OC(C)OC(=O)C12OC(C)(C)OC1CC1C3CC(F)C4=CC(=O)C=CC4(C)C3(F)C(O)CC12C (single isomer, unassigned) [Example 4 epimer B, 1'-Ethoxycarbonyloxyethyl 6α,9α-difluoro-11β-hydroxy-16α,17α-[(1-methylethylidene)bis(oxy)]androsta-1,4-diene-3-one-17β-carboxylate] | 0.30
3 | CCC[C@@H]1O[C@@H]2C[C@H]3[C@@H]4C[C@H](F)C5=CC(=O)C=C[C@]5(C)[C@@]4(F)[C@@H](O)C[C@]3(C)[C@]2(C(=O)OC(C)OC(=O)OC(C)C)O1 (single isomer, unassigned) [Example 87] | 0.63
4 | CCC[C@@H]1O[C@@H]2C[C@H]3[C@@H]4CCC5=CC(=O)C=C[C@]5(C)[C@@]4(F)[C@@H](O)C[C@]3(C)[C@]2(C(=O)OC(C)OC(=O)OCC)O1 (single isomer, unassigned) [Example 69] | 0.44
5 | CC(C)OC(=O)OC(C)OC(=O)C12OC(C)(C)OC1CC1C3CC(F)C4=CC(=O)C=CC4(C)C3(F)C(O)CC12C (single isomer, unassigned) [Example 27, 1'-isopropoxycarbonyloxyethyl 6α,9α-difluoro-11β-hydroxy-16α,17α-[(1-methylethylidene)bis(oxy)]androsta-1,4-diene-3-one-17β-carboxylate] | 0.50
6 | CCC[C@@H]1O[C@@H]2C[C@H]3[C@@H]4CCC5=CC(=O)C=C[C@]5(C)[C@H]4[C@@H](O)C[C@]3(C)[C@]2(C(=O)OC(C)OC(=O)OCC)O1 (stereo partly shown) [Example 67] | 0.04
7 | CCC[C@@H]1O[C@@H]2C[C@H]3[C@@H]4C[C@H](F)C5=CC(=O)C=C[C@]5(C)[C@@]4(F)[C@@H](O)C[C@]3(C)[C@]2(C(=O)OCOC(=O)OCC)O1 [Example 64] | 0.05
8 | CCC[C@@H]1O[C@@H]2C[C@H]3[C@@H]4CCC5=CC(=O)C=C[C@]5(C)[C@@]4(F)[C@@H](O)C[C@]3(C)[C@]2(C(=O)OC(C)OC(C)=O)O1 (single isomer, unassigned) [Example 55] | 0.20
9 | CCOC(=O)OC(C)(C)OC(=O)C12OC(C)(C)OC1CC1C3CC(F)C4=CC(=O)C=CC4(C)C3(F)C(O)CC12C (stereo not shown) [Example 38] | 0.04
10 | CC(=O)OC(C)OC(=O)C12OC(C)(C)OC1CC1C3CC(F)C4=CC(=O)C=CC4(C)C3(F)C(O)CC12C (single isomer, unassigned) [Example 5 epimer B, 1'-Acetoxyethyl 6α,9α-difluoro-11β-hydroxy-16α,17α-[(1-methylethylidene)bis(oxy)]androsta-1,4-diene-3-one-17β-carboxylate] | 0.17

From patent US4950659A, “16,17-acetalsubstituted androstane-17β-carboxylic acid esters prossessing high binding affinity to the glucocorticosteroid receptor” (Aktiebolaget Draco, priority 1985, dated 1990)
